Measurements reported in US8722690B2, “Mesoionic pesticides” (E I du Pont de Nemours and Company, priority 2009, dated 2014).

Legend:
Format in all cases: in vivo
[1] = system: potato leafhopper (Empoasca fabae); assay: whole plant or invertebrate; settings: 144 h, 6 days, Soleil bean plant, very good to excellent levels of control efficacy; for mortality at 50 ppm: sprayed at 50 ppm; for mortality at 10 ppm: sprayed at 10 ppm
Procedure: For evaluating control of potato leafhopper (Empoasca fabae) through contact and/or systemic means, the test unit consisted of a small open container with a 5-6-day-old Soleil bean plant (primary leaves emerged) inside. White sand was added to the top of the soil and one of the primary leaves was excised prior to application.
Test compounds were formulated and sprayed at 50 ppm and/or 10 ppm, and the tests were replicated three times as described for Test A. After spraying, the test units were allowed to dry for 1 h before they were post-infested with 5 potato leafhoppers (18-21-day-old adults). A black, screened cap was placed on the top of each test unit, and the test units were held for 6 days in a growth chamber at 24° C. and 70% relative humidity. Each test unit was then visually assessed for insect mortality.

[2] = system: green peach aphid (Myzus persicae); assay: whole plant or invertebrate; settings: 144 h, 6 days, radish plant; for mortality at 50 ppm: sprayed at 50 ppm
From the text: For evaluating control of green peach aphid (Myzus persicae) through contact and/or systemic means, the test unit consisted of a small open container with a 12-15-day-old radish plant inside. This was pre-infested by placing on a leaf of the test plant 30-40 aphids on a piece of leaf excised from a culture plant (cut-leaf method). The aphids moved onto the test plant as the leaf piece desiccated. After pre-infestation, the soil of the test unit was covered with a layer of sand.
Test compounds were formulated and sprayed at 50 ppm and/or 10 ppm as described for Test A. The applications were replicated three times. After spraying of the formulated test compound, each test unit was allowed to dry for 1 h and then a black, screened cap was placed on top. The test units were held for 6 days in a growth chamber at 19-21° C. and 50-70% relative humidity. Each test unit was then visually assessed for insect mortality.

[3] = system: cotton melon aphid (Aphis gossypii); assay: Test D: control of cotton melon aphid on cotton plant, contact and/or systemic; settings: for mortality at 50 ppm: sprayed at 50 ppm
From the text: For evaluating control of cotton melon aphid (Aphis gossypii) through contact and/or systemic means, the test unit consisted of a small open container with a 6-7-day-old cotton plant inside. This was pre-infested with 30-40 insects on a piece of leaf according to the cut-leaf method described for Test C, and the soil of the test unit was covered with a layer of sand.
Test compounds were formulated and sprayed at 50 ppm and/or 10 ppm as described for Test C. The applications were replicated three times. After spraying, the test units were maintained in a growth chamber and then visually rated as described for Test C.

[4] = system: corn planthopper (Peregrinus maidis); assay: whole plant or invertebrate; settings: 144 h, 6 days, maize plant, very good to excellent levels of control efficacy; for mortality at 10 ppm: sprayed at 10 ppm; for mortality at 50 ppm: sprayed at 50 ppm
Procedure: For evaluating control of corn planthopper (Peregrinus maidis) through contact and/or systemic means, the test unit consisted of a small open container with a 3-4-day-old maize plant (spike) inside. White sand was added to the top of the soil prior to application. Test compounds were formulated and sprayed at 50 ppm and/or 10 ppm, and replicated three times as described for Test A. After spraying, the test units were allowed to dry for 1 h before they were post-infested with ˜15-20 nymphs (18 to 21 day old) by sprinkling them onto the sand with a salt shaker. A black, screened cap was placed on the top of each test unit, and the test units were held for 6 days in a growth chamber at 22-24° C. and 50-70% relative humidity. Each test unit was then visually assessed for insect mortality.

O=c1c(-c2ccccc2)c([O-])[n+](Cc2cnc(Cl)s2)c2c3ccsc3ccn12 [Compound 356]
≥ 80%: mortality at 50 ppm [1]

O=c1c(-c2ccccc2F)c([O-])[n+](Cc2cnc(Cl)s2)c2c3ccsc3ccn12 [Compound 357]
≥ 80%: mortality at 50 ppm [2] | mortality at 10 ppm [1] | mortality at 50 ppm [1]

CCn1ccn2c(=O)c(-c3cccc(C(F)(F)F)c3)c([O-])[n+](Cc3cnc(Cl)s3)c12 [Compound 340]
≥ 80%: mortality at 10 ppm ([3]; sprayed at 10 ppm) | mortality at 50 ppm [3] | mortality at 50 ppm [2] | mortality at 10 ppm [4] | mortality at 50 ppm [4] | mortality at 50 ppm [1]

CCn1ccn2c(=O)c(-c3ccccc3)c([O-])[n+](Cc3cnc(Cl)s3)c12 [Compound 333]
≥ 80%: mortality at 50 ppm [3] | mortality at 10 ppm ([2]; sprayed at 10 ppm) | mortality at 50 ppm [2] | mortality at 10 ppm [4] | mortality at 50 ppm [4] | mortality at 10 ppm [1] | mortality at 50 ppm [1]
